Calls of active or inactive are those of the source.
What was measured:
BJ = assay: cytotoxicity toward Ras-transformed BJeLR fibroblasts, dose response, cell-based, alamar blue fluorescence, cherrypicked samples (AID 2631); assay type: functional; conditions: Homo sapiens;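 further: confirmatory dose-response assay in RAS-dependent BJ fibroblasts engineered with TERT, LT and ST, with cytotoxicity read by fluorescence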
Caspase-3 = molecular target: T1, Caspase-3 (Homo sapiens, UniProt P42574); assay: SAR Analysis of small molecule inhibitors of Sentrin-specific proteases (SENPs) using a Caspase-3 Selectivity assay. [Related pubchem assays (depositor defined):AID2540, AID2599, AID434973, AID489001]; assay type: functional
T1 sequence (P42574 whole entry): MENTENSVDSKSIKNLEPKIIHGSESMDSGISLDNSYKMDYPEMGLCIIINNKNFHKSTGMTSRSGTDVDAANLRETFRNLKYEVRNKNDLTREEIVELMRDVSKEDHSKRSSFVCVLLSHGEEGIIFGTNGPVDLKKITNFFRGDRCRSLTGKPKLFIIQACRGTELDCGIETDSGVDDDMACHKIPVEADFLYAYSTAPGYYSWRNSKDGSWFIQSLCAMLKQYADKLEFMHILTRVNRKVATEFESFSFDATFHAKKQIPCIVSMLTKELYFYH

[1] = molecular target: T2, Type-1 angiotensin II receptor (Homo sapiens, UniProt P30556); assay: AT1 receptor antagonists, dose response, selectivity assay for APJ receptor antagonist project, cell-based, uHTS hits (AID 463214); assay type: functional;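 further: antagonist potency against angiotensin II stimulated AT1 response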
T2 sequence (P30556 whole entry): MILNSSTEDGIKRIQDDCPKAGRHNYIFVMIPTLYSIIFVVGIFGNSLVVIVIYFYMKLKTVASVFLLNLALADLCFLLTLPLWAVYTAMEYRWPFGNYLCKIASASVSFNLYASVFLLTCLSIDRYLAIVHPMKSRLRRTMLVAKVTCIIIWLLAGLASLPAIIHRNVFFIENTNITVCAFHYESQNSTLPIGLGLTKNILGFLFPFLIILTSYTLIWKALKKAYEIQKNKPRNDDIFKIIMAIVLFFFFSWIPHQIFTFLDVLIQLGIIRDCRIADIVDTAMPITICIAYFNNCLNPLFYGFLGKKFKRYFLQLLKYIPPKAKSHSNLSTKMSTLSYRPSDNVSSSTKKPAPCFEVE

[2] = molecular target: T3, 1-phosphatidylinositol 4,5-bisphosphate phosphodiesterase gamma-1 (Homo sapiens, UniProt P19174); assay: Counterscreen for inhibitors of phospholipase C isozymes (PLC-B3): Fluorescence-based biochemical high throughput dose response assay to identify inhibitors of phospholipase C isozymes (PLC-gamma1).
T3 sequence (P19174 whole entry): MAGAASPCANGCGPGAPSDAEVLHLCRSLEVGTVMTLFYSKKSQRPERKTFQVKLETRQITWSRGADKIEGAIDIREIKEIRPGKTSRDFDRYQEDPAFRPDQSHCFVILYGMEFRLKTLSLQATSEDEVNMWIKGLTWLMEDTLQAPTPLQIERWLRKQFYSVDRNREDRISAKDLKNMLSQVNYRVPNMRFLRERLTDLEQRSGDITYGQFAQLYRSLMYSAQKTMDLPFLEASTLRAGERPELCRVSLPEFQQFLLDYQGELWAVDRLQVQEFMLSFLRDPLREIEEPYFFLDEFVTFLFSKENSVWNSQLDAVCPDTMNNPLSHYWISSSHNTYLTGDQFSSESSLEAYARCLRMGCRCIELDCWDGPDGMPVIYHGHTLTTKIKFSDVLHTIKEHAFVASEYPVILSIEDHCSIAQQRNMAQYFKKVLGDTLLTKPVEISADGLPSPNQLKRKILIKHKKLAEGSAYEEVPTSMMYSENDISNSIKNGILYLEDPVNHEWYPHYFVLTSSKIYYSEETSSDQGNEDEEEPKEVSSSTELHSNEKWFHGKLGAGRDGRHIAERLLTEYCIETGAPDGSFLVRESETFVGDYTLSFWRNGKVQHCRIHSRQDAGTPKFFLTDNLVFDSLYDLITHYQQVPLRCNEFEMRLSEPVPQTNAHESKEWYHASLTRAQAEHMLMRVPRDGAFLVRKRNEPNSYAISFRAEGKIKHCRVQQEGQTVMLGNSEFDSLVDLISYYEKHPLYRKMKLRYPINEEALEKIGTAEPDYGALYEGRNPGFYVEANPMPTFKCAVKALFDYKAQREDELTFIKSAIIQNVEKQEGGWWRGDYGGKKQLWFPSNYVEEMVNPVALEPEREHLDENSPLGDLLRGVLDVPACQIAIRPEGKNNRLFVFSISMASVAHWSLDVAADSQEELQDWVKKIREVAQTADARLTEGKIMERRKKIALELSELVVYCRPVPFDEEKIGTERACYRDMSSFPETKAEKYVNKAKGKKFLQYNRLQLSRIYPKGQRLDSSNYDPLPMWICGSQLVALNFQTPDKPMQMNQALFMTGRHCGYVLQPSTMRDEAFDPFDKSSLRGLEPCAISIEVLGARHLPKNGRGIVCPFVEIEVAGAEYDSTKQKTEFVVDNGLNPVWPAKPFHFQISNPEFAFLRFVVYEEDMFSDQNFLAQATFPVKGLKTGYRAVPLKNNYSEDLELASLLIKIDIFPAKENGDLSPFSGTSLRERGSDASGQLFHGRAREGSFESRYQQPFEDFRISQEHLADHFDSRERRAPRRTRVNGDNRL

## COC(=O)C[C@]1(C(=O)OC)CN(C#N)N(c2ccc(Cl)cc2)C12c1ccccc1-c1ccccc12
BJ
  EC50: 1.07 µM (active)

## O=C(Nc1ccc(C#Cc2ccccc2)cc1)C1CC1
Caspase-3
  IC50: 19.7 µM (active)

## CCCCn1c(NC(=O)c2ccco2)c(C(=O)OCC)c2nc3ccccc3nc21
[1]
  IC50: 10.4 µM (active)

## Cc1ccccc1NC1=C/C(=N\S(=O)(=O)c2ccc(C(=O)O)cc2)c2ccccc2C1=O
[2]
  IC50: 90.1 µM (inactive)
